Reference: patent US8741906B2 (priority 2011, dated 2014)
pEC50: −log10 of the molar value.

How the values were obtained:
human CB1 receptors = biological target: T1, human CB1 receptors (Homo sapiens, UniProt P21554); assay: functional cAMP assay, human CB1; assay type: cell-based; details: CHO cells expressing human CB1, cAMP; read-out: human CB1 EC50
T1 construct: expressed in transfected cells; host or cells: CHO cells
Procedure: (§1) CHO cells expressing human CB1 or CB2 receptors are seeded 17-24 hours prior to the experiment 50.000 cells per well in a black 96 well plate with flat clear bottom (Corning Costar #3904) in DMEM (Invitrogen No. 31331), 1×HT supplement, with 10% fetal calf serum and incubated at 5% CO2 and 37° C. in a humidified incubator. The growth medium was exchanged with Krebs Ringer Bicarbonate buffer with 1 mM IBMX and incubated at 30° C. for 30 min. Compounds were added to a final assay volume of 100 μl and incubated for 30 min at 30° C. Using the cAMP-Nano-TRF detection kit the assay (Roche Diagnostics) was stopped by the addition of 50 μl lysis reagent (Tris, NaCl, 1.5% Triton X100, 2.5% NP40, 10% NaN3) and 50 μl detection solutions (20 μM mAb Alexa700-cAMP 1:1, and 48 μM Ruthenium-2-AHA-cAMP) and shaken for 2 h at room temperature. The time-resolved energy transfer is measured by a TRF reader (Evotec Technologies GmbH), equipped with a ND:YAG laser as excitation source. The plate is measured twice with the excitation at 355 nm and at the emission with a delay of 100 ns and a gate of 100 ns, total exposure time 10 s at 730 (bandwidth 30 nm) or 645 nm (bandwidth 75 nm), respectively. The FRET signal is calculated as follows: FRET=T730-Alexa730-P(T645-B645) with P=Ru730-B730/Ru645-B645, where T730 is the test well measured at 730 nM, T645 is the test well measured at 645 nm, B730 and B645 are the buffer controls at 730 nm and 645 nm, respectively. cAMP content is determined from the function of a standard curve spanning from 10 μM to 0.13 nM cAMP.
(§2) EC50 values were determined using Activity Base analysis (ID Business Solution, Limited). The EC50 values for a wide range of cannabinoid agonists generated from this assay were in agreement with the values published in the scientific literature.

human CB2 receptors = biological target: T2, human CB2 receptors (Homo sapiens, UniProt P34972); assay: functional cAMP assay, human CB2; assay type: cell-based; details: CHO cells expressing human CB2, cAMP; read-out: human CB2 EC50
T2 construct: expressed in transfected cells; host or cells: CHO cells
T2 sequence (P34972 whole entry): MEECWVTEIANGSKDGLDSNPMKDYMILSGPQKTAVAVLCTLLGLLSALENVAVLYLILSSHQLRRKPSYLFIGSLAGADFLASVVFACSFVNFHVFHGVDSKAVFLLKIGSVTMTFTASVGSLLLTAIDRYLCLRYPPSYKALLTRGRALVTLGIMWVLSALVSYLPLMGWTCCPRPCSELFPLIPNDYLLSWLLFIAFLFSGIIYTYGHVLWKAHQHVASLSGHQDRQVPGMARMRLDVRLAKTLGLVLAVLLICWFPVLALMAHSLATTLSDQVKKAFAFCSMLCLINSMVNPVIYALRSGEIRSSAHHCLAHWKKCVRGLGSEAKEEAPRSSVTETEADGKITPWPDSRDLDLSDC
Procedure: as §1, §2

T1 sequence (P21554 whole entry): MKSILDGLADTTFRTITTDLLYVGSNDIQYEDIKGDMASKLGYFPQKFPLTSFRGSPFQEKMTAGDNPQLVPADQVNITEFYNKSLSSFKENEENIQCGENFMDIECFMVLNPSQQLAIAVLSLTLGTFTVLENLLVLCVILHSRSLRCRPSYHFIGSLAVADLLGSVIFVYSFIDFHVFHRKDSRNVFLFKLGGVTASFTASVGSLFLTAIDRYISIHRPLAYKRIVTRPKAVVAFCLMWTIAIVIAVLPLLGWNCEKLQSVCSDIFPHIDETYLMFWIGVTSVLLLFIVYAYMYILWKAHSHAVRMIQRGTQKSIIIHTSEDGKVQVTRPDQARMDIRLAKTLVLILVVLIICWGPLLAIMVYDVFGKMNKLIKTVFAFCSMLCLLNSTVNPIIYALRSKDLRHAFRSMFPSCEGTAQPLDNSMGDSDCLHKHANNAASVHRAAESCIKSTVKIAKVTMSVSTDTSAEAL

| SMILES | pEC50 (human CB1 receptors) | pEC50 (human CB2 receptors) |
| --- | --- | --- |
| CC(C)(C)c1nc(N2C[C@@H](O)[C@@H](O)C2)c2nnn(Cc3ccccc3Cl)c2n1 [Example 56, (3S,4R)-1-[5-tert-Butyl-3-(2-chloro-benzyl)-3H-[1,2,3]triazolo[4,5-d]pyrimidin-7-yl]-pyrrolidine-3,4-diol] | < 5.00 | 7.78 |
| COc1ccc(Cn2nnc3c(N4CCOCC4)nc(C(C)(C)C)nc32)cc1 [Example 57, 5-tert-Butyl-3-(4-methoxy-benzyl)-7-morpholin-4-yl-3H-[1,2,3]triazolo[4,5-d]pyrimidine] | < 5.00 | 7.91 |
| CC(C)(C)c1nc(N2CCOCC2)c2nn[nH]c2n1 [Example 58] | < 5.00 | 6.47 |
| CC(C)(C)c1nc(N2CCOCC2)c2nnn(Cc3ccc(F)cc3Cl)c2n1 [Example 59, 5-tert-Butyl-3-(2-chloro-4-fluoro-benzyl)-7-morpholin-4-yl-3H-[1,2,3]triazolo[4,5-d]pyrimidine] | < 5.00 | 8.64 |
| COc1ccc(Cn2nnc3c(N4CCC(F)(F)C4)nc(C(C)(C)C)nc32)cc1 [Example 60, 5-tert-Butyl-7-(3,3-difluoro-pyrrolidin-1-yl)-3-(4-methoxy-benzyl)-3H-[1,2,3]triazolo[4,5-d]pyrimidine] | < 5.00 | 8.60 |
| CCn1nnc2c(N3CCC(F)(F)C3)nc(C(C)(C)C)nc21 [Example 61, 5-tert-butyl-7-(3,3-difluoropyrrolidin-1-yl)-3-ethyl-3H-[1,2,3]triazolo[4,5-d]pyrimidine] | < 5.00 | 7.88 |
| COCCn1nnc2c(N3CCC(F)(F)C3)nc(C(C)(C)C)nc21 [Example 62, 5-tert-Butyl-7-(3,3-difluoro-pyrrolidin-1-yl)-3-(2-methoxy-ethyl)-3H-[1,2,3]triazolo[4,5-d]pyrimidine] | < 5.00 | 8.48 |
| CC(C)(C)c1nc(N2CCC(F)(F)C2)c2nnn(CCO)c2n1 [Example 63, 2-[5-tert-Butyl-7-(3,3-difluoro-pyrrolidin-1-yl)-[1,2,3]triazolo[4,5-d]pyrimidin-3-yl]-ethanol] | < 5.00 | 7.74 |
| CC(C)(C)c1nc(N2CCC(F)(F)C2)c2nnn(CC3CCCCC3)c2n1 [Example 64, 5-tert-Butyl-3-cyclohexylmethyl-7-(3,3-difluoro-pyrrolidin-1-yl)-3H-[1,2,3]triazolo[4,5-d]pyrimidine] | < 5.00 | 8.64 |
| CC(C)(C)c1nc(N2CCC(F)(F)C2)c2nnn(Cc3cccc(Cl)c3)c2n1 [Example 65, 5-tert-Butyl-3-(3-chloro-benzyl)-7-(3,3-difluoro-pyrrolidin-1-yl)-3H-[1,2,3]triazolo[4,5-d]pyrimidine] | 6.66 | 9.05 |
| CC(C)(C)c1nc(N2CCC(F)(F)C2)c2nnn(Cc3ccc(Cl)cc3)c2n1 [Example 66, 5-tert-Butyl-3-(4-chloro-benzyl)-7-(3,3-difluoro-pyrrolidin-1-yl)-3H-[1,2,3]triazolo[4,5-d]pyrimidine] | < 5.00 | 8.70 |
| CC(C)(C)c1nc(N2CCC(F)(F)C2)c2nnn(Cc3cccc(Cl)c3Cl)c2n1 [Example 67, 5-tert-Butyl-3-(2,3-dichloro-benzyl)-7-(3,3-difluoro-pyrrolidin-1-yl)-3H-[1,2,3]triazolo[4,5-d]pyrimidine] | 6.79 | 9.70 |
| CC(C)(C)c1nc(N2CCC(F)(F)C2)c2nnn(Cc3ccc(Cl)cc3Cl)c2n1 [Example 68, 5-tert-Butyl-3-(2,4-dichloro-benzyl)-7-(3,3-difluoro-pyrrolidin-1-yl)-3H-[1,2,3]triazolo[4,5-d]pyrimidine] | < 5.00 | 9.15 |
| CC(C)(C)c1nc(N2CCC(F)(F)C2)c2nnn(Cc3cc(Cl)ccc3Cl)c2n1 [Example 69, 5-tert-Butyl-3-(2,5-dichloro-benzyl)-7-(3,3-difluoro-pyrrolidin-1-yl)-3H-[1,2,3]triazolo[4,5-d]pyrimidine] | 6.56 | 9.52 |
| CC(C)(C)c1nc(N2CCC(F)(F)C2)c2nnn(Cc3c(Cl)cccc3Cl)c2n1 [Example 70, 5-tert-Butyl-3-(2,6-dichloro-benzyl)-7-(3,3-difluoro-pyrrolidin-1-yl)-3H-[1,2,3]triazolo[4,5-d]pyrimidine] | 7.29 | 10.00 |
| CC(C)(C)c1nc(N2CCC(F)(F)C2)c2nnn(Cc3ccc(F)cc3Cl)c2n1 [Example 71, 5-tert-Butyl-3-(2-chloro-4-fluoro-benzyl)-7-(3,3-difluoro-pyrrolidin-1-yl)-3H-[1,2,3]triazolo[4,5-d]pyrimidine] | < 5.00 | 9.40 |
| CC(C)(C)c1nc(N2CCC(F)(F)C2)c2nnn(Cc3c(F)cccc3Cl)c2n1 [Example 72, 5-tert-Butyl-3-(2-chloro-6-fluoro-benzyl)-7-(3,3-difluoro-pyrrolidin-1-yl)-3H-[1,2,3]triazolo[4,5-d]pyrimidine] | 7.39 | 10.00 |
| CC(C)(C)c1nc(N2CCC(F)(F)C2)c2nnn(Cc3ccccn3)c2n1 [Example 73, 5-tert-Butyl-7-(3,3-difluoro-pyrrolidin-1-yl)-3-pyridin-2-ylmethyl-3H-[1,2,3]triazolo[4,5-d]pyrimidine] | 7.22 | 10.00 |
| CC(C)(C)c1nc(N2CCC(F)(F)C2)c2nnn(Cc3cccnc3)c2n1 [Example 74, 5-tert-Butyl-7-(3,3-difluoro-pyrrolidin-1-yl)-3-pyridin-3-ylmethyl-3H-[1,2,3]triazolo[4,5-d]pyrimidine] | 7.25 | 10.00 |
| CC(C)(C)c1nc(N2CCC(F)(F)C2)c2nnn(Cc3ccncc3)c2n1 [Example 75, 5-tert-Butyl-7-(3,3-difluoro-pyrrolidin-1-yl)-3-pyridin-4-ylmethyl-3H-[1,2,3]triazolo[4,5-d]pyrimidine] | 7.01 | 9.70 |
| CC(C)(C)c1nc(N2CCC(F)(F)C2)c2nnn(CC(F)(F)F)c2n1 [Example 76, 5-tert-Butyl-7-(3,3-difluoro-pyrrolidin-1-yl)-3-(2,2,2-trifluoro-ethyl)-3H-[1,2,3]triazolo[4,5-d]pyrimidine] | < 5.00 | 8.64 |
| CC(C)(C)c1nc(N2CCC(F)(F)C2)c2nnn(Cc3cc(F)c(F)cc3Cl)c2n1 [Example 77, 5-tert-Butyl-3-(2-chloro-4,5-difluoro-benzyl)-7-(3,3-difluoro-pyrrolidin-1-yl)-3H-[1,2,3]triazolo[4,5-d]pyrimidine] | < 5.00 | 9.10 |
| CC(C)(C)c1nc(N2CCC(F)(F)C2)c2nnn(Cc3c(F)ccc(F)c3Cl)c2n1 [Example 78, 5-tert-Butyl-3-(2-chloro-3,6-difluoro-benzyl)-7-(3,3-difluoro-pyrrolidin-1-yl)-3H-[1,2,3]triazolo[4,5-d]pyrimidine] | 6.84 | 10.00 |
| CC(C)(C)c1nc(N2CCC(F)(F)C2)c2nnn(Cc3ccccc3Br)c2n1 [Example 79, 3-(2-Bromo-benzyl)-5-tert-butyl-7-(3,3-difluoro-pyrrolidin-1-yl)-3H-[1,2,3]triazolo[4,5-d]pyrimidine] | 7.08 | 10.00 |
| CC(C)(C)c1nc(N2CCC(F)(F)C2)c2nnn(Cc3ccccc3C(F)(F)F)c2n1 [Example 80, 5-tert-Butyl-7-(3,3-difluoro-pyrrolidin-1-yl)-3-(2-trifluoromethyl-benzyl)-3H-[1,2,3]triazolo[4,5-d]pyrimidine] | 7.16 | 9.52 |
| COc1ccccc1Cn1nnc2c(N3CCC(F)(F)C3)nc(C(C)(C)C)nc21 [Example 81, 5-tert-Butyl-7-(3,3-difluoro-pyrrolidin-1-yl)-3-(2-methoxy-benzyl)-3H-[1,2,3]triazolo[4,5-d]pyrimidine] | 7.16 | 10.00 |
| CC(C)(C)c1nc(N2CCC(F)(F)C2)c2nnn(Cc3ccccc3OC(F)(F)F)c2n1 [Example 82, 5-tert-Butyl-7-(3,3-difluoro-pyrrolidin-1-yl)-3-(2-trifluoromethoxy-benzyl)-3H-[1,2,3]triazolo[4,5-d]pyrimidine] | 6.60 | 9.70 |
| CC(C)(C)c1nc(N2CCC(F)(F)C2)c2nnn(Cc3ccccc3C#N)c2n1 [Example 83, 2-[5-tert-Butyl-7-(3,3-difluoro-pyrrolidin-1-yl)-[1,2,3]triazolo[4,5-d]pyrimidin-3-ylmethyl]-benzonitrile] | 6.55 | 10.00 |
| CC(C)(C)c1nc(N2CCC(F)(F)C2)c2nnn(CCc3ccccc3)c2n1 [Example 84, 5-tert-Butyl-7-(3,3-difluoro-pyrrolidin-1-yl)-3-phenethyl-3H-[1,2,3]triazolo[4,5-d]pyrimidine] | 6.35 | 8.92 |
| C[C@H](c1ccccc1Cl)n1nnc2c(N3CCC(F)(F)C3)nc(C(C)(C)C)nc21 [Example 86] | 6.43 | 9.40 |
